Source: patent publication US20120141601A1, “DIETARY SUPPLEMENT, FEED AND PHARMACEUTICAL COMPOSITION CONTAINING CHIA SEED AND MACA, AND PREPARATION METHOD THEREOF” (priority 2009, published 2012)

Key:
Format in all cases: in vivo, Sprague-Dawley male rats
testosterone = test: Testosterone level in whole blood; conditions: 25% alcohol daily for 25 days, whole blood from the heart
Experimental: (§1) Sprague-Dawley male rats (Orientbio) were divided into groups of six which were then administered for 26 days with neither alcohol nor the extracts for the normal group, with alcohol but not with extracts for the control group, with alcohol and 1% by weight octacosanol, with alcohol and 1% by weight chia seeds, with alcohol and 0.5% by weight maca, and with alcohol and a mixture of 1% by weight chia seeds and 0.5% by weight maca, respectively. Typical feedstuff was fed, together with water, to the normal group and, together with 25% alcohol, to the control group while the feedstuff for the other groups contained the test substances as described above.
(§2) After the rats of the test groups set in Test Example 3 were administered with 25% alcohol every day for 25 days, blood samples were taken from the tail vein and measured for testosterone level using enzyme immunoassay (Roche, USA). The levels of testosterone and high-density lipoproteins in the whole blood taken from the heart were measured in Eone Reference Laboratory.
To investigate the effect of chia seeds and maca (extract), used as active ingredients in the composition of the present invention, on testosterone activity, the levels of testosterone in whole blood were analyzed. […]

aldehyde dehydrogenase = test: Hepatic aldehyde dehydrogenase activity in liver homogenate; conditions: liver homogenate supernatant, absorbance at 340 nm; groups of Test Example 3
Experimental: as §1
(§3) In order to investigate the effect of the composition of the present invention on alcoholysis enzymes, the rats of the test groups set in Test Example 3 were anesthetized with chloroform and subjected to ventrotomy to excise the liver. The liver tissue was homogenized in 10 volumes of 100 mM sodium phosphate buffer, pH 7.4, using a homogenizer and then disrupted with an ultrasonicator. Centrifugation at 700 G for […] removed nuclei and cell debris. After centrifugation at 9,000 G for 20 min, the supernatant was measured for hepatic alcohol dehydrogenase and aldehyde dehydrogenase activity. The protein concentration of the supernatant was determined using a BCA kit and used to normalize the amount of liver tissue between test groups. […]

[1] = Locomotor activity, open field test
Experimental: as §1
The locomotor activities of the groups set in Test Example 3 were measured in an open field test chamber (38.0 cm×26.0 cm×42.0 cm; LETICA, SPAIN). Horizontal activity was recorded by an IR detector for 10 min To investigate the effects that chia seeds and maca (extract), used as active ingredients in the composition of the present invention, had on locomotor activity, measurements of the horizontal activity were analyzed. The horizontal activity was 1179.2±21.2 cm for the normal group, but […] for the control group, which was decreased by about 75% compared to the normal. […]

[2] = Rotarod performance test for space perception and endurance
Experimental: as §1
The groups set in Test Example 3 were measured for space perception activity by the rotarod performance test which was conducted for 5 min for each rat with the cylinder (380×260×420 mm) of rotarod LE8300 (LETICA, SPAIN) rotating at a speed of 4 to 40 rpm. Cases in which the rats fell on the ground within 20 sec after starting were excluded from the measurement.
To investigate the effect of chia seeds and maca (extract), used as active ingredients in the composition of the present invention, on space perception and endurance, measurements of the rotarod performance test were analyzed. […] In contrast, the time was 98.16±11.35 sec for octacosanol-administered group, 151.50±5.08 sec for the chia seed-administered group, 215.33±13.14 sec for the maca-administered group and 240.66±39.30 sec for the group co-administered with chia seeds and maca, which were increased by 3, 5, 7, and 8 times, respectively, compared to the control group. As apparent from the data of the rotarod performance test, space perception and endurance were enhanced by octacosanol, chia seeds, maca, and a combination of chia seeds and maca, and most increased, inter alia, by the mixture of chia seeds and maca (FIG. 6, Table 2).

alcohol dehydrogenase = test: Hepatic alcohol dehydrogenase activity in liver homogenate; conditions: liver homogenate supernatant, absorbance at 340 nm; groups of Test Example 3
Experimental: as §1, §3

[3] = test system: high-density lipoproteins; test: High-density lipoprotein level in whole blood; conditions: 25% alcohol daily for 25 days, whole blood from the heart
Experimental: as §1, §2
To investigate the effect of chia seeds and maca (extract), used as active ingredients in the composition of the present invention, on penile function, the levels of high-density lipoproteins were analyzed. […]

[4] = Blood alcohol concentration
Experimental: as §1
Blood alcohol concentrations were measured after the rats were administered 25% alcohol every day for 30 days. In this regard, blood samples were taken from the tail vein of the rats of the test groups set in Test Example 3 at 6 P.M. every five days, and blood alcohol concentrations were determined using an alcohol tester (Asia Commerce Co. Ltd., Model No. LION SD-400).
To investigate the effect of chia seeds and maca (extract), used as active ingredients in the composition of the present invention, on the degradation of blood alcohol, measurements of the blood alcohol concentration were analyzed. The blood alcohol concentration was 0% for the normal group and 0.06% for the control group. […]

[5] = Endurance test, weighted swimming in bath
Experimental: as §1
A swimming experiment was conducted in a transparent acryl bath (with a dimension of length 80 cm×width 50 cm×depth 90 cm) ⅔ filled with water maintained at 24° C. The Sprague-Dawley male rats (Orientbio) were allowed to freely swim with a weight equivalent to 8˜10% of their body weight suspended from the abdomen thereof. Measurements were made of the time it took for the rat to swim to a point at which the head was submerged for 10 sec or longer below the water surface (Hong, S. G., J. Kor. Food Sci. Nutr. 32(7), 1076 (2003)).
To investigate the effects of chia seeds and maca (extract), used as active ingredients in the composition of the present invention, on endurance, measurements of the swing time were analyzed. The swimming time was measured to be 306.33±6.21 sec for the normal group, but 147.16±21.71 sec for the control group, which was equivalent to about 46% of that of the normal group. In contrast, 352.66±34.69 sec was measured for the octacosanol-administered group, 355.66±34.62 sec for the chia seed-administered group, 476.00±45.56 sec for the maca-administered group, and 527.83±25.57 sec for the group co-administered with chia seeds and mace, which were increased by 2.4, 2.4, 3.2 and 3.5 times, compared to the control group. […]

What does the source list for `CCCCCCCCCCCCCCCCCCCCCCCCCCCCO` [octacosanol]?
level of testosterone in whole blood (testosterone): 195 ± 62.2 ng/dL; aldehyde dehydrogenase activity (aldehyde dehydrogenase): 9.8±1.4 mmole/min/mg protein; horizontal activity ([1]; open field, IR detector, 10 min, groups of Test Example 3): 240.2±12.3 cm; increase of horizontal activity compared to the control group ([1]; vs alcohol control group): 8 times; time on rotarod ([2]; Table 2, rotarod performance test): 98.16 ± 11.35 s; time that the rats stayed on the rotating cylinder ([2]; rotarod 4 to 40 rpm, 5 min, groups of Test Example 3): 98.16 ± 11.35 s; increase of time on rotating cylinder compared to the control group ([2]; vs alcohol control group): 3 times; alcohol dehydrogenase activity (alcohol dehydrogenase): 8.9±0.8 mmole/min/mg protein; level of high-density lipoproteins [3]: 32.5 ± 1.5 mg/dL; blood alcohol concentration ([4]; 25% alcohol daily for 30 days, tail vein blood, groups of Test Example 3): 0.034%; decrease of blood alcohol concentration compared to the control group ([4]; vs alcohol control group): 55%; swimming time ([5]; 26 days, alcohol plus 1% octacosanol, 1% chia seeds, 0.5% maca or 1% chia seeds + 0.5% maca in feed, weight 8-10% of body weight): 352.66 ± 34.69 s; swimming time ([5]; Table 1, endurance test with swimming in bath): 352.66 ± 34.69 s; increase of swimming time compared to the control group ([5]; vs alcohol control group): 2.4 times
